We go through 90 compounds from a melting point compilation (Tetko et al.; mined from patent text by program, amines drawn as free bases though some values may be those of a salt).

Broadly, the melting point is the temperature of the solid-liquid transition. With `CNC(=O)[C@@H](NC(=O)[C@@H](CC(C)C)C(C(=O)O)C(=O)O)C(C)(C)C`, the melting point amounted to 101 °C.

The compound `CC(C)=CCCC(C)C1CCC2C3CC=C4CC(O)CC(O)C4(C)C3CCC12C` (stereo not given) gave a melting point of 137 to 139 °C.

For the compound `O=c1c2ccc(Cl)cc2n(Cc2ccccc2)n2c(Cl)ccc12`, the melting point was 134 to 136 °C.

In turn, `N#Cc1cnc2sc(-c3ccc(C=O)cc3)cc2c1Nc1cccc2[nH]ccc12` registered a melting point above 245 °C.

For `CNc1nc(C)c(-c2nc3ccccc3c(=O)n2-c2ccccc2C)s1`, the melting point is 218 to 220 °C.

On to `COc1ccc(-c2nc(CSCCO)nc3cc(OC)c(OC)cc23)cc1OC`, for which the melting point lay in the range of 154 to 155 °C.

`CC(C)(C)c1nc2cc(N3CCSCC3)c(N)cc2s1` displayed a melting point of 170 to 175 °C.

`CC(C)N1CC(CN(C)C)N(C)c2ccccc2C1=O` (stereo not given) yielded a melting point of 93 to 95 °C.

For `O=C(O)c1ccc(-c2nccs2)nc1`, the melting point is above 300 °C.

`N#Cc1ncc(Cl)nc1C#N` yielded a melting point of 89 to 90 °C.

On to `O=C(O)C1(c2ccccc2)CCC2(CC1)OCCO2`, for which the melting point was in the range of 134 to 139 °C.

The compound `CS(=O)c1onc(-c2ccccc2)c1-c1ccc(S(N)(=O)=O)cc1` (stereo not given) displayed a melting point of 194 to 204 °C.

For `CCC(Cc1ccccc1-c1ccccc1)C(=O)O` (stereo not given), the melting point lay within 91.2 to 94 °C.

`CCCc1c(Cc2ccc(-c3ccccc3-c3nnn[nH]3)cc2)c(O)nc2ccnn12` returned a melting point of 260 °C.

`Cc1cc(-c2nnn(C)n2)cc(C)c1OCCCC(O)c1cc2cccnc2[nH]1` (stereo not given) showed a melting point of 166 to 169 °C.

With `O=C(OC1CCc2c(c3ccccc3n2Cc2ccc(Cl)cc2)C1)c1ccccc1` (stereo not given), the melting point is 150 to 152 °C.

`COC(=O)ON(C)C(=O)C(C)Nc1c([N+](=O)[O-])cc(C)cc1[N+](=O)[O-]` (stereo not given) had a melting point of 112 to 113 °C.

`CCOC(=O)C1CCCCN1C(=O)/C=C/c1ccc(Sc2ccc3c(c2)OCCO3)c([N+](=O)[O-])c1` (stereo not given) yielded a melting point of 74 to 75 °C.

`O=C1c2c(Cl)cccc2-n2cnc(-c3nc(CN4CCCC4)cs3)c2[C@@H]2CCCN12` yielded a melting point of 213 to 214 °C.

`O=S(=O)(O)CCN1CCOCC1`: the melting point was in the range of 68 to 78 °C.

For `CSC(Oc1cc(C)c(Br)c(C)c1)C(=O)NC(C)(C)C` (stereo not given), the melting point lay within 123 to 125 °C.

With `O=C(O)Cc1ccc(CC2(CNS(=O)(=O)c3ccccc3)CCCC2)cc1`, the melting point lay within 154 to 156 °C.

In turn, `NC(=O)c1nnn(Cc2ccc(Cl)c(Cl)c2)c1N` displayed a melting point of 221 to 222 °C.

`NS(=O)(=O)c1ccc(NC(=O)CCl)cc1C(F)(F)F` had a melting point of 185 to 190 °C.

Consider `CC1CC(=O)Oc2cc(O)ccc21` (stereo not given), for which the melting point was 109 to 110 °C.

In turn, `Fc1cccc(C2(N3CCC3)CCC3(CC2)NCCc2c3[nH]c3ccccc23)c1` (stereo not given) returned a melting point of 186 to 188 °C.

Turning to `CCOC(=O)C1=C2CCCN2C(C)=C(C(=O)OC)C1c1cccc([N+](=O)[O-])c1` (stereo not given), the melting point is 120 °C.

In turn, `COc1ccc(C(=O)Nc2ccc3ccc(OC(C)C)nc3n2)cc1` displayed a melting point of 78 °C.

`O=C1NCN(c2ccc(Cl)cc2)C12CCN(Cc1ccnc(-c3ccc(Cl)cc3)c1)CC2` showed a melting point of 223 to 225 °C.

As for `CCCCNC(=O)N(C(=O)NCCCC)c1c(OC(=O)N(CC)CC)nc(C)c2cc(OC)c(OC)cc12`, the melting point was in the range of 138 to 140 °C.

As for `CC(C)(CC(=O)O)C(Br)CC(Cl)(Cl)Cl` (stereo not given), the melting point lay in the range of 123 to 124 °C.

`CCOC(=O)CCc1ccc(CBr)cc1` returned a melting point of 132 °C.

As to `CC(C)NC(=O)N1CCc2[nH]cnc2C1C(C)C` (stereo not given), the melting point was found to be 202 °C.

Compound `CC(=C1SC(=O)NC1=O)c1ccc(OCCOc2c(-c3ccccc3F)n(C)c3ccccc3c2=O)c(Cl)c1` showed a melting point of 220 to 222 °C.

Take `O=[N+]([O-])c1cc(CSC2OC(CO)C(OC3OC4COC(c5ccccc5)OC4C(O)C3O)C(O)C2O)ccc1Cl` (stereo not given): the melting point was in the range of 120 to 122 °C.

Compound `FC(F)Oc1cn(-c2c(Cl)cc(C(F)(F)F)cc2Cl)nc1C(F)(F)F` displayed a melting point of 55.5 to 58 °C.

With `COc1cccc(C(=O)C=C2CCCN2C)c1`, the melting point was 92 to 93 °C.

Consider `COc1cc(-n2c(C)c(CC(=O)O)c3cc(C)ccc32)nc(OC)n1`, for which the melting point lay in the range of 197 to 198 °C.

Consider `O=c1[nH]c2ccc3cccnc3c2o1`, for which the melting point was above 300 °C.

Turning to `COc1ccc2ccc(-c3ccccc3)cc2c1`, the melting point fell in the range of 65.4 to 66.3 °C.

The compound `CC(=O)OC1CC(=O)N([Si](C)(C)C)C1` (stereo not given) registered a melting point of 148 to 150 °C.

`CONC(=O)c1ccccc1NC(=O)Cc1cccc(Br)c1` yielded a melting point of 166 °C.

The compound `O=C1c2c(-c3ccccc3)cc(CNC3CC3)nc2OCCN1Cc1cc(C(F)(F)F)cc(C(F)(F)F)c1` yielded a melting point of 129 to 131 °C.

`Nc1cc(Oc2ccc(S(=O)(=O)c3ccc(OCc4ccccc4)c(Cl)c3)cc2Cl)c([N+](=O)[O-])cc1O` came in with a melting point of 181 to 184 °C.

In turn, `CCCN(CCCNc1ncc(Cc2ccc(F)cc2)c(=O)[nH]1)c1ccccn1` gave a melting point of 107 to 109 °C.

`Cc1ccc(-c2ccc3ccccc3c2)n1CC[C@H]1C[C@H](O)CC(=O)O1` (relative stereo): the melting point was 45 to 50 °C.

On to `O=C(O)c1ccccc1C(=O)c1ccncc1`, for which the melting point fell in the range of 191 to 193 °C.

Compound `O=C(c1ccccn1)c1cc(Br)ccc1-n1cnnc1CCl` displayed a melting point of 147 to 149 °C.

Compound `O=C(O)C12CCCC(C1)C1CCC2C1` (stereo not given) yielded a melting point of 158 to 160 °C.

With `Cc1cc(OCCc2nc(-c3ccc(-c4ccccc4)cc3)oc2C)ccc1OC(C)(C)C(=O)O`, the melting point lay in the range of 122 to 123 °C.

`COc1cc(CC(=O)O)n(C)c1C(=O)c1ccc(Cl)cc1` registered a melting point of 142 °C.

Regarding `Cc1ccc(Cn2nc(C(=O)O)cc2-c2ccc(Cl)c(C)c2)cc1`, the melting point was 180 °C.

Compound `CC1(C)CC(O)CC(C)(C)N1OCc1ccccc1` gave a melting point of 86 to 87 °C.

The compound `O=[N+]([O-])c1c(NCCO)cccc1NCCO` yielded a melting point of 103 to 104 °C.

With `Cc1ccc(F)c2c1NC(=O)C21COc2cc3c(cc21)CCO3` (stereo not given), the melting point was above 250 °C.

For the compound `Cc1ccc2nc(N3CCN(c4ncccc4Cl)CC3)[nH]c2c1`, the melting point fell in the range of 258 to 259 °C.

`COc1ccc(NS(=O)(=O)c2cc3cc(Cl)ccc3oc2=O)cc1O`: the melting point was 225 to 226 °C.

On to `NCc1cccc2ccc(C(=O)O)cc12`, for which the melting point lay in the range of 223 to 225 °C.

For `c1cc(-c2nc3cc4[nH]cnc4cc3[nH]2)ccn1`, the melting point was above 280 °C.

With `CC(C)c1cc(C(=O)Nc2ccc(C(=O)O)c(Cl)c2)oc1C(C)C`, the melting point was in the range of 152 to 153 °C.

With `Cc1cccc(CC(=O)O)c1OCCCc1cn(-c2ccc(C(F)(F)F)cn2)nc1C(C)C`, the melting point lay in the range of 159 to 160 °C.

With `COc1ccc(N2CCN(c3c(C)c(C)c4c(c3C)C(N3CCCCCC3)C(C)(C)O4)CC2)cc1` (stereo not given), the melting point lay within 127 to 128 °C.

Turning to `NCC1(Cc2ccc(CC(=O)O)cc2)CCC1`, the melting point was above 255 °C.

As for `CCC(c1oc2ccccc2c(=O)c1-c1ccccc1)n1cnc2c(N)ncnc21` (stereo not given), the melting point was 223 to 225 °C.

With `CC1(C)C(=O)N(c2ccnc(NC(=O)NCc3ccccn3)c2)c2ccccc21`, the melting point is 191 to 192 °C.

In the case of `CCCc1c(OCc2cccc(C(=O)NCCCCc3cccnc3)c2)ccc(C(C)=O)c1O`, the melting point fell in the range of 120 to 123 °C.

In turn, `Cc1ccc(-c2c(O)nc(S)nc2O)cc1` displayed a melting point of 290 to 292 °C.

The compound `NCC1CCN(c2nc3ccccc3[nH]2)CC1` yielded a melting point of 136 to 138 °C.

Consider `COc1ccc(Sc2ncccc2C(=O)NCC23CC4CC(CC(C4)C2)C3)cc1`, for which the melting point lay in the range of 130 to 131 °C.

In turn, `O=C1NCCc2c1c1cccc3c1n2CCC3` registered a melting point of 254 to 256 °C.

Turning to `CCCCc1ncc(/C=C(\Cc2cccs2)C(=O)O)n1Cc1ccc(C(=O)O)cc1Cl`, the melting point was in the range of 234 to 236 °C.

For the compound `CCC(CC)N1COCc2c1cc(C)nc2Oc1c(C)cc(C)cc1C`, the melting point was 112 to 114 °C.

The compound `CCc1nc2c(C)cc(C)nc2n1-c1ccc(CC(C)NC(=O)NS(=O)(=O)c2ccc(C)cc2)cc1` (stereo not given) came in with a melting point of 128 °C.

`COc1ccc(S(=O)(=O)Nc2cc(Cl)ccc2/C=C/c2ccncc2)cc1`: the melting point lay within 190 to 193 °C.

As for `COC(=S)NN=C1C(=O)Nc2ccc(C3=NNC(=O)SC3C)cc21` (stereo not given), the melting point stood at 245 °C.

As to `O=C(Nc1cccnn1)N1CCN(c2nccc(-c3ccc(F)cc3)n2)CC1`, the melting point lay within 168 to 169 °C.

Consider `Cc1[nH]cnc1CN1CC2COc3ccccc3N2C1=O` (stereo not given), for which the melting point fell in the range of 212 to 216 °C.

As for `Cc1cnc(N2CCN(c3ccc([N+](=O)[O-])cc3)CC2)n1C`, the melting point is 204 to 205 °C.

`O=C(CCCN1CCC2(CC(O)c3cc(Cl)cc(Cl)c32)C1)c1ccc(F)cc1` (stereo not given) showed a melting point of 149 to 152 °C.

`COc1ccc(C2=NN(c3ccccc3)C(=O)[C@H]3CC=CC[C@@H]23)cc1OC` (relative stereo): the melting point lay within 134 to 135 °C.

Compound `[N-]=[N+]=C(S(=O)(=O)C1CCCCC1)S(=O)(=O)C1CCCCC1` gave a melting point of 130 to 131 °C.

Take `CCOC(=O)c1sc2ccc(Cl)cc2c1CBr`: the melting point lay within 148 to 150 °C.

In turn, `CC(=O)OCC(=O)Nc1cccc(NC(=O)COC(C)=O)c1C#N` yielded a melting point of 151 to 153 °C.

Consider `COC(=O)C1(NC(=O)Cc2cc(C)ccc2C)CCN(OC)CC1`, for which the melting point fell in the range of 91 to 93 °C.

Consider `CCCc1nc(NC(=N)N)sc1-c1cccc([N+](=O)[O-])c1`, for which the melting point fell in the range of 137 to 139 °C.

The compound `CN1CCCC1CNC(=O)c1cc(S(N)(=O)=O)cc2c1OCCO2` (stereo not given) showed a melting point of 187 to 188 °C.

`Oc1ccc2c(c1)OCC(c1ccc(F)cc1)C2c1ccc(OCCN2CCCC2)cc1` (stereo not given) came in with a melting point of 164 to 167 °C.

`CCON=C(c1ccccc1COc1ccccc1)n1cncn1` registered a melting point of 78.5 to 80.5 °C.

Take `CCOC(=O)c1c(C)cc2c(c1C)C(=O)OCC2=O`: the melting point was 142 to 144 °C.

Consider `Cc1cc2c(nc3n2CCC3)c([N+](=O)[O-])c1Br`, for which the melting point was 201 to 203 °C.
